This is an account of results in patent publication US20210009627A1, “CYCLIC DINUCLEOTIDE COMPOUNDS CONTAINING 2-AZA-HYPOXANTHINE OR 6H-PYTAZOLO[1,5-D][1,2,4]TRIZAIN-7-ONE AS STRING AGONISTS” (BOEHRINGER INGELHEIM INTERNATIONAL GMBH, priority 2018, published 2021).

Structures can show the parent of a compound that is named as a salt.

For experiment [1], the target named is Human STING (hSTING, residues 155-341, wild-type sequence) (Homo sapiens, UniProt Q86WV6, H232R). Briefly: hSTING binding by differential scanning fluorimetry (DSF). The note with it: 100 μM test compound, 3 μM target protein, thermal shift, at least two measurements averaged; read-out: hSTING Tm shift. As for the experimental part:
3) 2 μl of this protein-dye-mixture (25× SYPRO Orange and 15 μM Protein) was added to 8 μl compound solution. Final volume was 10 μL. 4) Certain well positions were used as negative control. 5) The plates were prepared for duplicate measurement and centrifuged for 2 min at 1000 g. 6) In the measurement, 160 cycles of 0.5° C. were used (temperature ramp 15 s/cycle, 15° C. to 95° C.). Data analysis: The dissociation curves were processed in Bio-Rad CFX Manager. Peak type was set to “negative”. At least two measurements were averaged.
On the technique in general: Differential scanning fluorimetry follows unfolding on heating by fluorescence.

Experiment [2] concerns the target T1, human STING protein in THP1-Blue ISG cells (Homo sapiens, UniProt Q86WV6, G230A/H232R/R293Q/R71H).
T1 construct: host or cells: THP1-Blue ISG cells
Briefly: In vitro cytokine induction, THP1-Blue ISG reporter cell assay (IRF-inducible SEAP). In kind it is cell-based. As to conditions: 24 hours incubation, SEAP OD at 620 nm. From the text: In Vitro Cytokine Induction
Activation of the STING protein expressed in THP1 cells results in an increase of interferon production. By the stable integration of an interferon regulatory factor (IRF)-inducible SEAP (secreted embryonic alkaline phosphatase) reporter construct the functional interferon signaling pathway can be monitored. Using Invivogen's QUANTI-Blue™ colorimetric enzyme assay and a suitable optical density (OD) reader the activity of SEAP can be detected and quantified. This technique could be used to characterize pharmacological modification of the STING protein. Measurements of SEAP activity were performed in THP1-Blue™ ISG cells stably expressing the human STING protein and the IRF-inducible SEAP reporter construct. Cells were cultivated for expansion in RPMI1640 medium with 10% fetal calf serum, 50 μg/ml Penicillin-Streptomycin, 100 μg/ml Zeocin, and 100 μg/ml Normocin in a 37°, 95% humidity and 5% CO2 incubator. Assay-ready cells were stored as frozen stocks.
In preparation for the assay, the cells were thawed in Zeocin-/Normocin-free medium and were distributed into the assay plates with a density of 15000 cells/15 μL per well. […]
At the day of the assay, 75 μl per well of Quanti-Blue reagent was added to all wells of the plate and the plate was incubated another 30 minutes at 37° C. The OD at 620 nm was measured on the EnVision reader (PerkinElmer). […]

The target of the next experiment is T2, hSTING HAQ (Homo sapiens, UniProt Q86WV6, G230A/H232R/R293Q/R71H).
T2 construct: expressed in transfected cells; host or cells: THP1-Blue ISG hSTING KO clone, retroviral MSCV-ires-GFP-Blasti
T2 sequence (Q86WV6 whole entry R71H/G230A/H232R/R293Q): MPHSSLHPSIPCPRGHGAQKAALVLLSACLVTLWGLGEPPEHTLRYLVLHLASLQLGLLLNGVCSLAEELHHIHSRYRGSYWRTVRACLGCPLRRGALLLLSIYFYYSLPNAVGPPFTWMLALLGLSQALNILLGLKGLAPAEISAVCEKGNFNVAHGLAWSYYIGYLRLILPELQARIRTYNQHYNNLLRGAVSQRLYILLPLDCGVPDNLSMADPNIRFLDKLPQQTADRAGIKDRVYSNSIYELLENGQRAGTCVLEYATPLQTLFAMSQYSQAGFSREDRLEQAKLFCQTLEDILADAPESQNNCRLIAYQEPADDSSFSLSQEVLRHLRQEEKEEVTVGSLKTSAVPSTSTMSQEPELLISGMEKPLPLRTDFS
The experiment is described as follows: THP1-Blue ISG hSTING KO reporter cells expressing hSTING HAQ variant. As to conditions: HAQ variant cell line. In kind it is cell-based. From the text: (§1) Several single nucleotide polymorphisms have been identified in the human STING gene that may affect the response to cyclic dinucleotides. To determine the activity of compounds of the invention, THP1-Blue ISG reporter cell lines expressing the different human STING variants have been generated. To do so, the endogenous human STING was first deleted using the CRISPR/CAS9 system: THP1-Blue ISG cells were electroporated with ALL-IN-ONE CRISPR plasmids targeting the STING gene (purchased from Sigma encoding the gRNA and GFP as a reporter gene for successful transduction). GFP positive cells then were sorted 24 h post transfection and expanded. Cells were then dispersed in semisolid methocel medium to allow single cell clone isolations. Clones were then screened for cGAMP responsiveness using the Quanti-blue reporter assay. Non-responsive clones were subsequently analysed for STING loss by western blotting and sequencing of the STING locus.
(§2) For the overexpression of the human STING variants, a confirmed THP1-Blue ISG hSTING KO clone was transduced with individual retroviral plasmids (MSCV-ires-GFP-Blasti) encoding the allelic variants of hSTING (WT, HAQ, R232H, AQ and R293Q), respectively. Transduced cells were sorted for different levels of GFP fluorescence and STING allele expression was analysed by western blot.

In another experiment the target is T3, hSTING WT (Homo sapiens, UniProt Q86WV6, H232R).
T3 construct: expressed in transfected cells; host or cells: THP1-Blue ISG hSTING KO clone, retroviral MSCV-ires-GFP-Blasti
T3 sequence (Q86WV6 whole entry H232R): as the sequence (Q86WV6 whole entry R71H/G230A/H232R/R293Q) above, with H71R, A230G, Q293R counted along it
The experiment is described as follows: THP1-Blue ISG hSTING KO reporter cells expressing hSTING WT variant. In kind it is cell-based. As to conditions: WT variant cell line.
From the text: as §1, §2

In another experiment the target is T4, hSTING AQ (Homo sapiens, UniProt Q86WV6, G230A/H232R/R293Q).
T4 construct: expressed in transfected cells; host or cells: THP1-Blue ISG hSTING KO clone, retroviral MSCV-ires-GFP-Blasti
T4 sequence (Q86WV6 whole entry G230A/H232R/R293Q): as the sequence (Q86WV6 whole entry R71H/G230A/H232R/R293Q) above, with H71R counted along it
The experiment is described as follows: THP1-Blue ISG hSTING KO reporter cells expressing hSTING AQ variant. As to conditions: AQ variant cell line. It counts as cell-based.
From the text: as §1, §2

In the next experiment the target is T5, hSTING R293Q (Homo sapiens, UniProt Q86WV6, H232R/R293Q).
T5 construct: expressed in transfected cells; host or cells: THP1-Blue ISG hSTING KO clone, retroviral MSCV-ires-GFP-Blasti
T5 sequence (Q86WV6 whole entry H232R/R293Q): as the sequence (Q86WV6 whole entry R71H/G230A/H232R/R293Q) above, with H71R, A230G counted along it
The experiment is described as follows: THP1-Blue ISG hSTING KO reporter cells expressing hSTING R293Q variant. As to conditions: R293Q variant cell line. In kind it is cell-based.
From the text: as §1, §2

Another experiment addresses T6, hSTING R232H (Homo sapiens, UniProt Q86WV6).
T6 construct: expressed in transfected cells; host or cells: THP1-Blue ISG hSTING KO clone, retroviral MSCV-ires-GFP-Blasti
Briefly: THP1-Blue ISG hSTING KO reporter cells expressing hSTING R232H variant. In kind it is cell-based. The note with it: R232H variant cell line.
From the text: as §1, §2

Chain of Human STING (hSTING, residues 155-341, wild-type sequence) (Q86WV6 155-341 H232R): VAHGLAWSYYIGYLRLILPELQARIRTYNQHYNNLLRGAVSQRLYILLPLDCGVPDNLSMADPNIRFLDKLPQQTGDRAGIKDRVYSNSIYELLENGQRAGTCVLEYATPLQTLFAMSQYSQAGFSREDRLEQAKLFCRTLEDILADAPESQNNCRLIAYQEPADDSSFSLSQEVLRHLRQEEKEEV
T1 sequence (Q86WV6 whole entry R71H/G230A/H232R/R293Q): as the sequence (Q86WV6 whole entry R71H/G230A/H232R/R293Q) above
T6 sequence (Q86WV6 whole entry, stated change not applied): as the sequence (Q86WV6 whole entry R71H/G230A/H232R/R293Q) above, with H71R, A230G, R232H, Q293R counted along it

As to `Nc1ncnc2c1ncn2[C@@H]1O[C@@H]2COP(=O)(S)O[C@@H]3[C@H](O)[C@@H](COP(=O)(S)O[C@H]2[C@H]1F)O[C@H]3n1cnc2c(=O)[nH]nnc21` (single isomer, unassigned) [Example 1.1, Cyclic 2-azainosine-(2′→5′)-phosphorothioate-2′-F-2′-deoxyadenosine-(3′→5′)-phosphoro-thioate sodium salt], the ΔTm at 100 µM in experiment [1] is 23.9 °C. Also, the EC50 (as a rule, the concentration at which the effect is half-maximal) in experiment [2] is 0.16 µM; at hSTING HAQ it was 510 µM; at hSTING WT it was 510 µM; on hSTING AQ it was 510 µM; on hSTING R293Q, 510 µM; on hSTING R232H, 510 µM.

`Nc1ncnc2c1ncn2[C@@H]1O[C@@H]2COP(=O)(S)O[C@@H]3[C@H](O)[C@@H](COP(=O)(S)O[C@H]2[C@H]1F)O[C@H]3c1cnn2c(=O)[nH]ncc12` (single isomer, unassigned) [Example 2.1, Cyclic 8-δ-D-ribofuranosyl-pyrazolo[1,5-d]-1,2,4-triazin-4(3H)-one-(2′→5′)-phosphorothioate-2′-F-2′-deoxyadenosine-(3′→5′)-phosphorothioate sodium salt]: the ΔTm at 100 µM in experiment [1] turned out to be 17.9 °C. Besides, the EC50 in experiment [2] was 0.14 µM.
